From patent US12550899B2, “Topramezone derivative and use thereof” (priority 2023, dated 2026)
Entries after “also recorded” stand apart in the source; their conditions may differ.

Tests used:
Digitaria sanguinalis = experiment: Laboratory rainfastness test (foliar spray, simulated rainfall); type: in vivo; settings: for Average fresh weight / Control efficacy: 20 days post-application
Procedure: Refer to the “Pesticides guidelines for laboratory bioactivity tests Part 4: Foliar spray application test for herbicide activity, NY/T 1155.4-2006”.
(§1) The soil used for the test was a mixture of surface 20 cm loam and vermiculite, mixed in a volume ratio of 3:1 to form a culture soil. The test weeds were cultured in a glass greenhouse with a temperature ranging from 25° C. to 35° C. and under natural light.
A measured quantity of Digitaria sanguinalis seeds were sown in plastic pots with a diameter of 9 cm, and covered with 1-2 mm of soil. The ports were then placed in enamel trays filled with water, and watered by bottom irrigation. After the water seeped to the soil surface, the pots were transferred to the glass greenhouse for standby.
(§2) Five dosages were set for Compound I, Compound II and the control herbicide Topramezone, which were 3.75, 7.5, 15, 30 and 60 grams of active ingredient per hectare respectively. In addition, a blank control was also prepared.
(§3) The required amount of the herbicide was accurately measured out and directly added with water, which was diluted to the required dosage by using the serial dilution method for standby.
(§4) The test was conducted on Digitaria sanguinalis at the two-leaf and one-heart stage, with the stems and leaves both sprayed uniformly. The ASS-4 automatic control spraying system with a fan-shaped nozzle was used indoors for herbicide application. Depending on the nozzle pressure and flow rate, 50 mL of herbicide solution was applied to a spraying area of 1.1 m^2 (which was equivalent to the water consumption of 30 L per mu). The system's operating speed was calibrated. The plastic pots to be treated were arranged evenly on the spraying platform to ensure uniform treatment. The spray pressure was set to 0.35 MPa, and the flow rate of the fan-shaped nozzle was set to 800 mL/min. The spraying was carried out in sequence from the low dosage to the high dosage. Each treatment was repeated four times.
The rainfastness test was set as follows: at 0.5 hours, 1.0 hour, 3.0 hours, and 6.0 hours after the application of the herbicide, the weeds that have already been sprayed with the herbicide were subjected to stem and leaf showering with a specific shower equipment simulating rainfall. Weeds that were not subjected to the showering treatment served as the control group.
The damage symptoms of the weeds (such as growth inhibition, chlorosis, malformation, etc.) were carefully recorded at 3, 7, 10, and 20 days after herbicide application. A visual comparison of the herbicide effectiveness was made after simulated rainfall at different time intervals. At 20 days post-application, the fresh weight of the aboveground parts of the weeds from each treatment group was measured, and the fresh weight control efficacy was calculated.
The treatment results were calculated according to the following formula: weed fresh weight control efficacy (%)=(control fresh weight−treatment fresh weight)/control fresh weight×100. A DPS statistical software was used to conduct regression analysis on the logarithmic values of the herbicide dosage and the probit values of the weed fresh weight control efficacy, and the correlation coefficient, GR50, GR90, and the 95% confidence interval were calculated.

[1] = system: grassy weeds and broadleaf weeds; experiment: Laboratory bioactivity efficacy test 2.2, visual observation of weeds; type: in vivo
Procedure: • grassy weeds: Digitaria sanguinalis, Eleusine indica, Echinochloa crusgalli; • Broadleaf weeds: Portulaca oleracea, Abutilon theophrasti medicus. 2.2.2 Test Conditions
as §1
Quantified seeds of Digitaria sanguinalis, Eleusine indica, Echinochloa crusgalli, Portulaca oleracea, and Abutilon theophrasti medicus were sown in plastic pots with a diameter of 9 cm, and covered with 1-2 mm of soil. The ports were then placed in enamel trays filled with water, and watered by bottom irrigation. After the water seeped to the soil surface, the pots were transferred to the glass greenhouse for standby.
as §2, §3
as §4, with “grassy weeds” for “Digitaria sanguinalis”, “one-heart stage, Abutilon theophrasti medicus at the 2-true-leaf stage, and Portulaca oleracea at the 3-5-leaf” for “one-heart”, “repeated two to” for “repeated”
The herbicide was applied once. After spraying, the pots were air-dried for one day and then placed in the glass greenhouse. Regular watering was conducted to maintain moisture.
The damage symptoms of the weeds (such as growth inhibition, chlorosis, malformation, etc.) were carefully recorded at 3, 7, 10, and 20 days after herbicide application. A visual comparison of the herbicide effectiveness was made. At 20 days post-application, the fresh weight of the aboveground parts of the weeds from each treatment group was measured, and the fresh weight control efficacy was calculated.

[2] = No spraying (no simulated rainfall), dosage 3.75 g/hectare
[3] = No spraying (no simulated rainfall), dosage 7.5 g/hectare
[4] = No spraying (no simulated rainfall), dosage 15 g/hectare
[5] = No spraying (no simulated rainfall), dosage 30 g/hectare
[6] = No spraying (no simulated rainfall), dosage 60 g/hectare
[7] = Spraying water 0.5 hour after herbicide application, dosage 3.75 g/hectare
[8] = Spraying water 0.5 hour after herbicide application, dosage 7.5 g/hectare
[9] = Spraying water 0.5 hour after herbicide application, dosage 15 g/hectare
[10] = Spraying water 0.5 hour after herbicide application, dosage 30 g/hectare
[11] = Spraying water 0.5 hour after herbicide application, dosage 60 g/hectare
[12] = Spraying water 1.0 hour after herbicide application, dosage 3.75 g/hectare
[13] = Spraying water 1.0 hour after herbicide application, dosage 7.5 g/hectare
[14] = Spraying water 1.0 hour after herbicide application, dosage 15 g/hectare
[15] = Spraying water 1.0 hour after herbicide application, dosage 30 g/hectare
[16] = Spraying water 1.0 hour after herbicide application, dosage 60 g/hectare
[17] = Spraying water 3.0 hour after herbicide application, dosage 3.75 g/hectare
[18] = Spraying water 3.0 hour after herbicide application, dosage 7.5 g/hectare
[19] = Spraying water 3.0 hour after herbicide application, dosage 15 g/hectare
[20] = Spraying water 3.0 hour after herbicide application, dosage 30 g/hectare
[21] = Spraying water 3.0 hour after herbicide application, dosage 60 g/hectare
[22] = Spraying water 6.0 hour after herbicide application, dosage 3.75 g/hectare
[23] = Spraying water 6.0 hour after herbicide application, dosage 7.5 g/hectare
[24] = Spraying water 6.0 hour after herbicide application, dosage 15 g/hectare
[25] = Spraying water 6.0 hour after herbicide application, dosage 30 g/hectare
[26] = Spraying water 6.0 hour after herbicide application, dosage 60 g/hectare

## COC(=O)OC(C)Oc1c(C(=O)c2ccc(S(C)(=O)=O)c(C3=NOCC3)c2C)cnn1C (centres unmarked) [Compound I, 1-((4-(3-(4,5-dihydroisoxazol-3-yl)-2-methyl-4-(methylsulfonyl)benzoyl)-1-methyl-1H-pyrazol-5-yl)oxy)ethyl methyl carbonate]
Digitaria sanguinalis; [2]
  Average fresh weight: 6.3 g
  Control efficacy: 3.1%
Digitaria sanguinalis; [3]
  Average fresh weight: 5.1 g
  Control efficacy: 21.8%
Digitaria sanguinalis; [4]
  Average fresh weight: 3.2 g
  Control efficacy: 50.6%
Digitaria sanguinalis; [5]
  Average fresh weight: 2.6 g
  Control efficacy: 60.5%
Digitaria sanguinalis; [6]
  Average fresh weight: 1.1 g
  Control efficacy: 82.8%
Digitaria sanguinalis; [7]
  Average fresh weight: 6.1 g
  Control efficacy: 6.9%
Digitaria sanguinalis; [8]
  Average fresh weight: 5.1 g
  Control efficacy: 22.2%
Digitaria sanguinalis; [9]
  Average fresh weight: 3.6 g
  Control efficacy: 45.6%
Digitaria sanguinalis; [10]
  Average fresh weight: 2.6 g
  Control efficacy: 60.9%
Digitaria sanguinalis; [11]
  Average fresh weight: 1.1 g
  Control efficacy: 82.8%
Digitaria sanguinalis; [12]
  Average fresh weight: 6.1 g
  Control efficacy: 7.3%
Digitaria sanguinalis; [13]
  Average fresh weight: 5.2 g
  Control efficacy: 21.1%
Digitaria sanguinalis; [14]
  Average fresh weight: 3.9 g
  Control efficacy: 41.0%
Digitaria sanguinalis; [15]
  Average fresh weight: 2.3 g
  Control efficacy: 64.8%
Digitaria sanguinalis; [16]
  Average fresh weight: 0.9 g
  Control efficacy: 86.6%
Digitaria sanguinalis; [17]
  Average fresh weight: 5.6 g
  Control efficacy: 14.9%
Digitaria sanguinalis; [18]
  Average fresh weight: 4.7 g
  Control efficacy: 28.7%
Digitaria sanguinalis; [19]
  Average fresh weight: 3.3 g
  Control efficacy: 50.2%
Digitaria sanguinalis; [20]
  Average fresh weight: 2.7 g
  Control efficacy: 58.2%
Digitaria sanguinalis; [21]
  Average fresh weight: 0.9 g
  Control efficacy: 86.6%
Digitaria sanguinalis; [22]
  Average fresh weight: 6.0 g
  Control efficacy: 8.4%
Digitaria sanguinalis; [23]
  Average fresh weight: 5.0 g
  Control efficacy: 23.4%
Digitaria sanguinalis; [24]
  Average fresh weight: 2.7 g
  Control efficacy: 58.6%
Digitaria sanguinalis; [25]
  Average fresh weight: 2.3 g
  Control efficacy: 64.4%
Digitaria sanguinalis; [26]
  Average fresh weight: 1.1 g
  Control efficacy: 82.8%
Digitaria sanguinalis; in vivo
  Rainfastness compared with Topramezone (in words): significantly better rainfastness
Digitaria sanguinalis; rain 0.5 h, 1.0 h and 3.0 h after application
  Effect of rain on control efficacy (in words): remained stable
Digitaria sanguinalis; rain 0.5 h after application
  Effect of rain on control efficacy (in words): little impact; also recorded: almost unaffected
[1]; 3 to 7 days after application, grassy weeds and broadleaf weeds like Portulaca oleracea
  Visual observation of weeds: gradually became whitened and withered
[1]; 10 days after application
  Visual observation of weeds: excellent treatment effects
[1]; 20 days after application
  Visual observation of weeds: dried up and died
